{"source": "patent US8481028B2", "about": "“Compositions for preparing a coffee beverage comprising hydrolysed chlorogenic acid” (Nestec S.A., priority 2008, dated 2013)", "key": {"[1]": {"test_system": "Lactobacillus johnsonii (CNCM I-1225) extract (lysed cells)", "assay": "Treatment of NESCAFE PROTECT with L. johnsonii extract (lysed cells), HPLC", "type": "biochemical", "experimental": "Cells of L. johnsonii (CNCM I-1225) were grown (7.0 E08 cfu/ml) and centrifuged (5000 g, 10 min), the pellets were resuspended in phosphate buffer (50 mM, pH 7.0) at a concentration of 0.61 g/ml. The cells were then lysed using the glass-beads method. 600 μl of cells preparation were put in screw-cap tubes and 600 μl of glass-beads were added at 0° C. The tubes were then put into a Mini-Beadbeater for 1 min of intense shaking, cooled in ice, and put another 1 min in the Mini-Beadbeater. […] Samples were withdrawn at different reaction times, centrifuged (3000 g, 5 min), filtered through 0.45 μm pore size syringe filters (Millipore SLHA 025 BS) and analysed by HPLC.\n(§1) Coffee samples were diluted to 1% w/w and analyzed by RP-HPLC on a CC 250/4 Nucleosil 100-5-C18 column (Macherey-Nagel). The eluent system was Millipore water, 0.1% TFA and CH3CN at a flow rate of 1 mL/min. The method allowed the simultaneous determination of caffeoyl quinic acids (CQA), feruloyl quinic acids (FQA), di-caffeoyl quinic acids (diCQA), feruloyl quinic acid-lactones, caffeic acid (CA) and ferulic acid (FA) (absorbance at 325 nm) using external standard calibration curves. Results were expressed relative to the reference at time 0 (t0) or to the reference at the same time without bacteria."}, "[2]": {"test_system": "Chlorogenate esterase", "assay": "Incubation of coffee extracts with chlorogenate esterase, HPLC", "type": "biochemical, Aspergillus japonicus", "experimental": "as §1\nChlorogenate esterase (24 U/g), derived from Aspergillus japonicus (Kikkoman, Japan). Tannase from Aspergillus oryzae (Kikkoman, Japan) Preparation of Bacteria Cells\nA solution of chlorogenate esterase (25 mg) in 200 μl phosphate buffer (pH 7.0) was added to 800 μl of a coffee solution (3%). The mixture was then incubated at 37° C. for 4 h, 16 h and 24 h. After reaction time, the enzymatic activity was stopped by heat treatment (3 min, 90° C.) and the mixture was filtered before analysis."}, "[3]": {"test_system": "Lactobacillus johnsonii (CNCM I-1225)", "assay": "Treatment of coffee extracts with bacteria cells (L. johnsonii), HPLC", "experimental": "as §1\n(§2) Tested strains were harvested (centrifugation at 5000 g for 10 min) after having well reached stationary phase, corresponding to 16 hours of incubation in culture medium at 37° C. in anaerobic atmosphere without agitation. For a first activation of the strains, frozen stock cultures were inoculated in fresh media and grown overnight. This pre-culture was used to inoculate the culture.\n(§3) After culture of bacteria and centrifugation, the pellets were resuspended in phosphate buffer (pH 7.0) at a concentration of 0.61 g/ml. To 200 μl of this cells preparation, 800 μl of a coffee solution (3%) was added and the mixture was incubated at 37° C. for 4 h, 16 h and 24 h."}, "[4]": {"test_system": "Bifidobacterium lactis BB12 (CNCM I-3446)", "assay": "Treatment of coffee extracts with bacteria cells (B. lactis), HPLC", "experimental": "as §1, §2, §3"}, "[5]": {"test_system": "Lactobacillus johnsonii (CNCM I-1225) fresh cells", "assay": "Treatment of NESCAFE PROTECT with L. johnsonii fresh cells, HPLC of chlorogenic and phenolic acids", "experimental": "Cells of L. johnsonii (CNCM I-1225) were grown (7.0 E08 cfu/ml) and centrifuged (5000 g, 10 min), the pellets were resuspended in phosphate buffer (50 mM, pH 7.0) at a concentration of 0.61 g/ml. […] Samples were withdrawn at different reaction times, centrifuged (3000 g, 5 min) and filtered through 0.45 μm pore size syringe filters (Millipore SLHA 025 BS) and analysed by HPLC.\nA reaction control was run in parallel under the same reaction conditions but without bacteria.\nas §1"}, "[6]": {"test_system": "spray-dried preparation of Lactobacillus johnsonii (CNCM I-1225)", "assay": "Treatment of NESCAFE PROTECT with spray-dried preparation of L. johnsonii, HPLC", "experimental": "To this solution, 10 mg of a spray-dried preparation of Lactobacillus johnsonii (CNCM I-1225) (3.3 E9 cfu/g) were added. The mixture was then incubated at 37° C. and samples were withdrawn at different reaction times. After centrifugation (3000 g, 5 min) and filtration (0.45 μm pore size syringe filters, Millipore SLHA 025 BS) the samples were analysed by HPLC.\nas §1"}, "[7]": {"test_system": "concentrated preparation of Lactobacillus johnsonii (CNCM I-1225)", "assay": "Treatment of NESCAFE with concentrated preparation of L. johnsonii, HPLC", "experimental": "400 mg of NESCAFE SPECIAL FILTRE® (a dried extract of roasted coffee beans) were dissolved in 1 ml of boiling water and the solution was cooled to 37° C. at room temperature. To 250 μl of this coffee solution, different amounts of concentrated preparation of Lactobacillus johnsonii (50 μl, 100 μl, 350 μl, 750 μl) were added and the volume was adjusted to 1 ml with water. The mixtures were than incubated at 37° C. for 2 h and 4 h. After centrifugation (3000 g, 5 min) and filtration the samples were analysed by HPLC.\nas §1"}, "[8]": {"test_system": "spray-dried preparation of Lactobacillus johnsonii (CNCM I-1225)", "assay": "Treatment of green coffee extract with spray-dried preparation of L. johnsonii, HPLC", "experimental": "30 mg of a dried green coffee extract was dissolved in 1 ml phosphate buffer (50 mM, pH 7.0) or in 1 ml water. To this solution, 10 mg of a spray-dried preparation of Lactobacillus johnsonii (3.3 E9 cfu/g) was added. The mixture was then incubated at 37° C. and samples were withdrawn at different reaction times. After centrifugation (3000 g, 5 min) and filtration (0.45 μm pore size syringe filters, Millipore SLHA 025 BS) the samples were analysed by HPLC.\nas §1"}}}
{"compound": "O=C(O)/C=C/c1ccc(O)c(O)c1", "note": "[CA, caffeic acid]", "values": [{"measurement": "Concentration in % relative to untreated reference at t = 0", "setting": "[1]; 2 h, cell preparation 100.0 uL", "result": 10729, "unit": "%"}, {"measurement": "Concentration in % relative to untreated reference at t = 0", "setting": "[1]; 2 h, cell preparation 350.0 uL", "result": 13901, "unit": "%"}, {"measurement": "Concentration in % relative to untreated reference at t = 0", "setting": "[1]; 6 h, cell preparation 100.0 uL", "result": 12581, "unit": "%"}, {"measurement": "Concentration in % relative to untreated reference at t = 0", "setting": "[1]; 6 h, cell preparation 350.0 uL", "result": 16300, "unit": "%"}, {"measurement": "% relative to untreated control at t = 0", "setting": "[2]; NESCAFE PROTECT + Chlorogenate esterase, 4 h", "result": 10879, "unit": "%"}, {"measurement": "% relative to untreated control at t = 0", "setting": "[2]; NESCAFE PROTECT + Chlorogenate esterase, 16 h", "result": 10198, "unit": "%"}, {"measurement": "% relative to untreated control at t = 0", "setting": "[2]; NESCAFE PROTECT + Chlorogenate esterase, 24 h", "result": 10750, "unit": "%"}, {"measurement": "% relative to untreated control at t = 0", "setting": "[2]; green coffee extract + Chlorogenate esterase, 4 h", "result": 18917, "unit": "%"}, {"measurement": "% relative to untreated control at t = 0", "setting": "[2]; green coffee extract + Chlorogenate esterase, 16 h", "result": 17275, "unit": "%"}, {"measurement": "% relative to untreated control at t = 0", "setting": "[2]; green coffee extract + Chlorogenate esterase, 24 h", "result": 18318, "unit": "%"}, {"measurement": "% relative to untreated control at t = 0", "setting": "[3]; NESCAFE PROTECT + Lactobacillus johnsonii, 4 h", "result": 7942, "unit": "%"}, {"measurement": "% relative to untreated control at t = 0", "setting": "[3]; NESCAFE PROTECT + Lactobacillus johnsonii, 16 h", "result": 9429, "unit": "%"}, {"measurement": "% relative to untreated control at t = 0", "setting": "[3]; NESCAFE PROTECT + Lactobacillus johnsonii, 24 h", "result": 9933, "unit": "%"}, {"measurement": "% relative to untreated control at t = 0", "setting": "[3]; green coffee extract + Lactobacillus johnsonii, 4 h", "result": 12505, "unit": "%"}, {"measurement": "% relative to untreated control at t = 0", "setting": "[3]; green coffee extract + Lactobacillus johnsonii, 16 h", "result": 17148, "unit": "%"}, {"measurement": "% relative to untreated control at t = 0", "setting": "[3]; green coffee extract + Lactobacillus johnsonii, 24 h", "result": 18107, "unit": "%"}, {"measurement": "% relative to untreated control at t = 0", "setting": "[4]; NESCAFE PROTECT + Bifidobacterium lactis, 4 h", "result": 968, "unit": "%"}, {"measurement": "% relative to untreated control at t = 0", "setting": "[4]; NESCAFE PROTECT + Bifidobacterium lactis, 16 h", "result": 2258, "unit": "%"}, {"measurement": "% relative to untreated control at t = 0", "setting": "[4]; NESCAFE PROTECT + Bifidobacterium lactis, 24 h", "result": 2840, "unit": "%"}, {"measurement": "% relative to untreated control at t = 0", "setting": "[4]; green coffee extract + Bifidobacterium lactis, 4 h", "result": 1521, "unit": "%"}, {"measurement": "% relative to untreated control at t = 0", "setting": "[4]; green coffee extract + Bifidobacterium lactis, 16 h", "result": 4182, "unit": "%"}, {"measurement": "% relative to untreated control at t = 0", "setting": "[4]; green coffee extract + Bifidobacterium lactis, 24 h", "result": 5283, "unit": "%"}, {"measurement": "Concentration in % relative to untreated reference at t = 0", "setting": "[5]; 6 h, cell preparation 100 uL", "result": 10111, "unit": "%"}, {"measurement": "Concentration in % relative to untreated reference at t = 0", "setting": "[5]; 6 h, cell preparation 350 uL", "result": 14282, "unit": "%"}, {"measurement": "Concentration in % relative to untreated reference at t = 0", "setting": "[5]; 6 h, cell preparation 750 uL", "result": 13215, "unit": "%"}, {"measurement": "Concentration in % relative to untreated reference at t = 0", "setting": "[5]; 24 h, cell preparation 100 uL", "result": 13661, "unit": "%"}, {"measurement": "Concentration in % relative to untreated reference at t = 0", "setting": "[5]; 24 h, cell preparation 350 uL", "result": 15981, "unit": "%"}, {"measurement": "Concentration in % relative to untreated reference at t = 0", "setting": "[5]; 24 h, cell preparation 750 uL", "result": 13238, "unit": "%"}, {"measurement": "% relative to untreated control at t = 0", "setting": "[6]; 2 h", "result": 3598, "unit": "%"}, {"measurement": "% relative to untreated control at t = 0", "setting": "[6]; 6 h", "result": 6140, "unit": "%"}, {"measurement": "% relative to untreated control at t = 0", "setting": "[6]; 24 h", "result": 7879, "unit": "%"}, {"measurement": "% relative to untreated control at t = 0", "setting": "[7]; cell amount 50 μL/1 mL, 2 h", "result": 1737, "unit": "%"}, {"measurement": "% relative to untreated control at t = 0", "setting": "[7]; cell amount 50 μL/1 mL, 4 h", "result": 1763, "unit": "%"}, {"measurement": "% relative to untreated control at t = 0", "setting": "[7]; cell amount 100 μL/1 mL, 2 h", "result": 2885, "unit": "%"}, {"measurement": "% relative to untreated control at t = 0", "setting": "[7]; cell amount 100 μL/1 mL, 4 h", "result": 2803, "unit": "%"}, {"measurement": "% relative to untreated control at t = 0", "setting": "[7]; cell amount 350 μL/1 mL, 2 h", "result": 5752, "unit": "%"}, {"measurement": "% relative to untreated control at t = 0", "setting": "[7]; cell amount 350 μL/1 mL, 4 h", "result": 4491, "unit": "%"}, {"measurement": "% relative to untreated control at t = 0", "setting": "[7]; cell amount 750 μL/1 mL, 2 h", "result": 7292, "unit": "%"}, {"measurement": "% relative to untreated control at t = 0", "setting": "[7]; cell amount 750 μL/1 mL, 4 h", "result": 5514, "unit": "%"}, {"measurement": "% relative to untreated control at t = 0", "setting": "[8]; 4 h", "result": 2673, "unit": "%"}, {"measurement": "% relative to untreated control at t = 0", "setting": "[8]; 6 h", "result": 3762, "unit": "%"}, {"measurement": "% relative to untreated control at t = 0", "setting": "[8]; 16 h", "result": 5182, "unit": "%"}, {"measurement": "% relative to untreated control at t = 0", "setting": "[8]; 24 h", "result": 6145, "unit": "%"}]}
